Laboratory results taken from US20040072206A1, “Method for identifying modulators of transcription” (priority 2000, published 2004).

Legend:
[1] = target: T1, B. subtilis RNAP (Bacillus subtilis, UniProt P37870+P37871); assay: Dual reporter assay in strain PL37: test reporter Pxyl-lacZ and ratio of control to test reporter (RES:MUG); type: cell-based; settings: for Ratio of the control reporter (RES): test reporter (MUG): strain PL37, DMSO control […]
T1 construct: endogenous in cells; host or cells: Bacillus subtilis strain PL37 (built from strain 168)
T1 sequence (P37871 whole entry): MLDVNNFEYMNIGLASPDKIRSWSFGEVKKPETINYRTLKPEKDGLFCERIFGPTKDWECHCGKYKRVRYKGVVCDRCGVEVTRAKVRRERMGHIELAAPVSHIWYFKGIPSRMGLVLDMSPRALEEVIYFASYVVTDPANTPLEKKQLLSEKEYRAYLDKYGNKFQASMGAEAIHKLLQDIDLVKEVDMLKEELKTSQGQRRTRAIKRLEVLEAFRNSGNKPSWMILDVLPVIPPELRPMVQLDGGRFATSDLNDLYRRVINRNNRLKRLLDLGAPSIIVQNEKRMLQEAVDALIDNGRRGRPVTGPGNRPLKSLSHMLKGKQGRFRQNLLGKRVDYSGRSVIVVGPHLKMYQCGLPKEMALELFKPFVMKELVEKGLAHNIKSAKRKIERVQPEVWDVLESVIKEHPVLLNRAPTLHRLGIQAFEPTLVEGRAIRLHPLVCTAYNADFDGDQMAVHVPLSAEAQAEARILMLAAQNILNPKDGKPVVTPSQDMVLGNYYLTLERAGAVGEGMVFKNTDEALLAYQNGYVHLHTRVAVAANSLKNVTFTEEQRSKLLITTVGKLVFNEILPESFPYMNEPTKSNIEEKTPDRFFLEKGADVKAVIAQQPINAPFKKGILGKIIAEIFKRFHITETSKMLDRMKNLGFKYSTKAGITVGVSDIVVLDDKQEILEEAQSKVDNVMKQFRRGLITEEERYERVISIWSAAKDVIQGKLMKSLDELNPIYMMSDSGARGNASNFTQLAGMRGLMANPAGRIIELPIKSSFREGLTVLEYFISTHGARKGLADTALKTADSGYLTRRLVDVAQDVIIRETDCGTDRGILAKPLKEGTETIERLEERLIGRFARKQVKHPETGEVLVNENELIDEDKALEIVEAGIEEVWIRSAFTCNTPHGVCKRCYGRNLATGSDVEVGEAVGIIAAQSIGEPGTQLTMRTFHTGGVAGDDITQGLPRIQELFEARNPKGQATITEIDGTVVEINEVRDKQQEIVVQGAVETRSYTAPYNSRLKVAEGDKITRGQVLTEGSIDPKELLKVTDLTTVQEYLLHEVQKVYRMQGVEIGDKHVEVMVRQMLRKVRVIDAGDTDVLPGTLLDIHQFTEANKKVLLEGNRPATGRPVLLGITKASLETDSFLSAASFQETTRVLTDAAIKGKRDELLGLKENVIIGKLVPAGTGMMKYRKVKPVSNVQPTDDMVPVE
T1 sequence (P20429 whole entry, further chain): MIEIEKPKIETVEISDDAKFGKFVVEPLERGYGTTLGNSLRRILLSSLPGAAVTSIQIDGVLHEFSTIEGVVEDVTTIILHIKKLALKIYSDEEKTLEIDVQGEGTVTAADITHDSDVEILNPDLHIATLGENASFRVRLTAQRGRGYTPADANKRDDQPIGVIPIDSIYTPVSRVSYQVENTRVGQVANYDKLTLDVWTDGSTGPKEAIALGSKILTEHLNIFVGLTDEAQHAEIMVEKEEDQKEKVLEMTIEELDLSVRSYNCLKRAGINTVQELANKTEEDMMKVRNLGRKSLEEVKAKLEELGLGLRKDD
T1 sequence (O35011 whole entry, further chain): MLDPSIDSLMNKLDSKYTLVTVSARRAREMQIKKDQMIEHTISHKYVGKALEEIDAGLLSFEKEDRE
T1 sequence (P37870 whole entry): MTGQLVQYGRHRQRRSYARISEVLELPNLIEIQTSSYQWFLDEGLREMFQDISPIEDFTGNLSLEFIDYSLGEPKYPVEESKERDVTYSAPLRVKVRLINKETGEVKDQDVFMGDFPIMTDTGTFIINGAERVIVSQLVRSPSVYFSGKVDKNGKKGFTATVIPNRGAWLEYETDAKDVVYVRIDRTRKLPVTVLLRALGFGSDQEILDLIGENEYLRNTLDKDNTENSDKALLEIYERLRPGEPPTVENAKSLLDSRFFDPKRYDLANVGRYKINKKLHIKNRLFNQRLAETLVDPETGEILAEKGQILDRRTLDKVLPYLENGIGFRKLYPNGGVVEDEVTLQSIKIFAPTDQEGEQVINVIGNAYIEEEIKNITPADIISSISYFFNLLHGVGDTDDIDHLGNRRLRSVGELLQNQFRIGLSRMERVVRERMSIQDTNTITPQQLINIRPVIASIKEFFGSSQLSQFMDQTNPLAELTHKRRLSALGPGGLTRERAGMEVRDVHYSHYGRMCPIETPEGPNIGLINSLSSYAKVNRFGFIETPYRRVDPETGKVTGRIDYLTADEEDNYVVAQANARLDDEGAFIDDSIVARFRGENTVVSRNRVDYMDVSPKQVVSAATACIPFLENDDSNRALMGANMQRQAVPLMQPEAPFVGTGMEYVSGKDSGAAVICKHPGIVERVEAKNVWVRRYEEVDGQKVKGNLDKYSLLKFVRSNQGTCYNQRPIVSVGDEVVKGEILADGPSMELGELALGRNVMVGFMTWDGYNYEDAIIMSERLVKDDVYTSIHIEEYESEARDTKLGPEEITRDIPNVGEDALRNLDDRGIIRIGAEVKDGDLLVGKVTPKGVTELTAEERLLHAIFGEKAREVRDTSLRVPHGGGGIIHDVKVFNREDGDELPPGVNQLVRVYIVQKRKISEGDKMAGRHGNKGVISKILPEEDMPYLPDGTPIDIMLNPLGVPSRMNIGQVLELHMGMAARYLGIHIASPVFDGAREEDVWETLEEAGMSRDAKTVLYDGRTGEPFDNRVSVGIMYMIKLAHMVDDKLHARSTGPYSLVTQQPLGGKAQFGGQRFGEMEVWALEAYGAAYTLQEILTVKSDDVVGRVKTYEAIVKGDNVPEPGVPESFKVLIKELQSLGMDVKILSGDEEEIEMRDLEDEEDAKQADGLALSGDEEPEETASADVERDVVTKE
Description: (§1) 20 known antibiotics were tested at a range of concentrations to determine their effect on test and control reporters within the assay. […] Cultures of PL37 grown in PAB, were diluted to 0.05 A600 and then grown for 2 hours at 37° C. in PAB supplemented with 0.02 mM IPTG. Cells were pelleted and frozen. They were later resuspended and diluted in PAB supplemented with 0.02 mM IPTG and grown at 37° C. to early exponential phase. Cultures were then diluted to 0.05 A600 in PAB and added in 20 μl volumes to wells of microtitre plates containing 20 μl volumes of the antibiotics. Plates were incubated at 37° C. for two hours, and assay mix was added to detect reporter enzyme activity (see below).
(§2) Following the addition of 160 μl of assay mix (1.3×Z buffer containing 94 μg/ml lysozyme, 8.4 μg/ml 4-methylumbelliferyl-β-D-galactoside, 0.53 μg/ml resorufin-β-D-glucuronide and 0.05% Triton) to each well, the microtitre plate was incubated in the dark for 30 mini or 1 hour at room temperature. Fluorescence was read on a BMG FLUOstar Galaxy at excitation/emission 355/460 nm and 544/590 nm, respectively, with gains set at 5 and 25, respectively.

[2] = target: T2, bacterial RNA polymerase (Bacillus subtilis, UniProt P37870+P37871); assay: Dual reporter assay in strain X (xylose-induced lacZ and T7 RNAP-driven gus reporters); type: cell-based; settings: 30 min incubation
T2 construct: endogenous in cells; host or cells: Bacillus subtilis strain X (derivative of strain 168)
T2 sequence (O35011 whole entry): as the sequence (O35011 whole entry, further chain) above
T2 sequence (P20429 whole entry, further chain): as the sequence (P20429 whole entry, further chain) above
T2 sequence (P37870 whole entry): as the sequence (P37870 whole entry) above
T2 sequence (P37871 whole entry): as the sequence (P37871 whole entry) above
From the text: The strain X is a derivative of the standard laboratory strain of Bacillus subtilis 168. It has been modified in three ways.
1. It carries a xylose-inducible promoter driving transcription of the well known reporter gene lacZ, encoding the enzyme β-galactosidase. The reporter gene is silent or expressed at low levels in the absence of xylose because the endogenous XylR protein binds to the promoter region, reducing the ability of RNAP to initiate transcription. On addition of xylose or similar sugar, the repressor leaves the promoter allowing RNAP to transcribe the gene strongly, resulting in increased synthesis of β-galactosidase. A simple colourigenic substrate, ONPG was used to detect the formation of the enzyme.
2. Strain X also carries a second reporter gene comprising a promoter recognised by the RNAP of bacteriophage T7. This promoter has been modified so as to be recognised and repressed by the same XylR repressor as controls the first reporter. Consequently, the promoter cannot be utilised by T7 RNAP unless xylose is present. […]
The assay was done by growing a culture of strain X in the absence of xylose and then dispensing aliquots of culture into the wells of a microtitre plate. […] The plate was incubated for 30 min to allow accumulation of the two reporter enzymes, then the cells were lysed and the two enzyme activities were measured.

[3] = target: T3, T7 RNAP (Escherichia phage T7, UniProt P00573); assay: Dual reporter assay in strain PL37: control reporter PT7X-gus; type: cell-based, bacteriophage T7; settings: strain PL37, FIG. 5
T3 construct: expressed in transfected cells; host or cells: Bacillus subtilis PL37, with Pspac-rpoT7 integrated in the chromosome and induced by IPTG
T3 sequence (P00573 whole entry): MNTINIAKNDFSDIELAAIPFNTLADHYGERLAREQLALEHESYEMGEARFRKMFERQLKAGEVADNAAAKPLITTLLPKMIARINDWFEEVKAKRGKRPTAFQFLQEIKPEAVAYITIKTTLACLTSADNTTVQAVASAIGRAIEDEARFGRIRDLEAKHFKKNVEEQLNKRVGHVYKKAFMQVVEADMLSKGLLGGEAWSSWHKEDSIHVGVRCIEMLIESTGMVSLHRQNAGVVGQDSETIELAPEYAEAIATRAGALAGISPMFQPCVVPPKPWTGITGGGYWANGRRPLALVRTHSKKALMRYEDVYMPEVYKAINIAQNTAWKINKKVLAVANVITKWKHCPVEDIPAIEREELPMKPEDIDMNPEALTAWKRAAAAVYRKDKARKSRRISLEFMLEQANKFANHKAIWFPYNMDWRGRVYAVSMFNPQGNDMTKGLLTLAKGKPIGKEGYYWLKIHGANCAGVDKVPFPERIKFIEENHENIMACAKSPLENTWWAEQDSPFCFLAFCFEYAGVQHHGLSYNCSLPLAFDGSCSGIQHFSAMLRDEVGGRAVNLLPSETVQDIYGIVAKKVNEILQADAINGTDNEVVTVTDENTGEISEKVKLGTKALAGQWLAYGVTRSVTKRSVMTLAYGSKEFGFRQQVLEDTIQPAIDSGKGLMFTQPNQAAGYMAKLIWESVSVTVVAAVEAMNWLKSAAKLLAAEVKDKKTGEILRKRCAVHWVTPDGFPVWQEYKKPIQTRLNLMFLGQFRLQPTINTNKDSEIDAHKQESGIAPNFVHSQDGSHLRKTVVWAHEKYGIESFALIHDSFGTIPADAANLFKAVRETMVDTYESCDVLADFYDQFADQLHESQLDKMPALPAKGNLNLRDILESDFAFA
Description: as §1, §2

[4] = Dilution Number 1 (highest concentration tested: 128, 16 or 0.5 μg/ml depending on antibiotic)
[5] = Dilution Number 11 (lowest concentration tested: 0.125, 0.016 or 0.0005 μg/ml depending on antibiotic)

Row | SMILES | Expression of the test reporter, xyl-lacZ ([1]; strain PL37, FIG. 6) | RES:MUG ratio compared with the no antibiotic control (DMSO) ([1]; strain PL37, Table 2, FIG. 7) | Detection as specific inhibitor of RNA polymerase ([1]; strain PL37, antibiotic panel) | Ratio of the control reporter (RES): test reporter (MUG) [1, 4] | Ratio of the control reporter (RES): test reporter (MUG) ([1]; Dilution Number 2) | Ratio of the control reporter (RES): test reporter (MUG) ([1]; Dilution Number 3) | Ratio of the control reporter (RES): test reporter (MUG) ([1]; Dilution Number 4) | Ratio of the control reporter (RES): test reporter (MUG) ([1]; Dilution Number 5) | Ratio of the control reporter (RES): test reporter (MUG) ([1]; Dilution Number 6) | Ratio of the control reporter (RES): test reporter (MUG) ([1]; Dilution Number 7) | Ratio of the control reporter (RES): test reporter (MUG) ([1]; Dilution Number 8) | Ratio of the control reporter (RES): test reporter (MUG) ([1]; Dilution Number 9) | Ratio of the control reporter (RES): test reporter (MUG) ([1]; Dilution Number 10) | Ratio of the control reporter (RES): test reporter (MUG) [1, 5] | Reporter enzyme activities (β-galactosidase and β-glucuronidase) [2] | Expression of the T7 RNAP-dependent control reporter [3] | Reporter expression (both reporter activities) ([1]; strain PL37, FIG. 5 and FIG. 6)
1 | CNC(=O)[C@@H](C)[C@H]1C(=O)/C(=C(O)/C=C/C(C)=C/[C@@H](C)[C@H]2O[C@@]3(C)O[C@H](C=C[C@@]34CO4)[C@@H]2C)C(=O)N1[C@@H]1CC[C@H](O)[C@H](C)O1 [Streptolydigin] | reduced drastically | greater than that of the no antibiotic control (DMSO) at several concentrations | detected as specific inhibitors of RNA polymerase | 16.44 | 16.68 | 14.07 | 10.22 | 4.88 | 2.53 | 1.74 | 1.41 | 1.27 | 1.23 | 1.16 | only the reporter enzyme driven by the T7 RNAP (β-glucuronidase) was active | increased | –
2 | CN[C@@H]1[C@H](O)[C@H](NC)[C@H]2O[C@@]3(O)C(=O)C[C@@H](C)O[C@H]3O[C@@H]2[C@H]1O [Spectinomycin] | – | – | – | 1.30 | 1.23 | 1.21 | 1.14 | 1.16 | 1.14 | 1.08 | 1.10 | 1.10 | 1.10 | 1.13 | – | – | remained unchanged
3 | CC1(C)S[C@@H]2[C@H](NC(=O)C(C(=O)O)c3ccccc3)C(=O)N2[C@H]1C(=O)O (stereo partly shown) [Carbenicillin] | – | – | – | 1.37 | 1.49 | 1.59 | 1.63 | 1.66 | 1.64 | 1.60 | 1.03 | 1.00 | 1.05 | 1.07 | – | – | –
4 | CC[C@H]1OC(=O)[C@H](C)[C@@H](O[C@H]2C[C@@](C)(OC)[C@@H](O)[C@H](C)O2)[C@H](C)[C@@H](O[C@@H]2O[C@H](C)C[C@H](N(C)C)[C@H]2O)[C@](C)(O)C[C@@H](C)C(=O)[C@H](C)[C@@H](O)[C@]1(C)O [Erythromycin] | – | – | – | – | – | – | 1.45 | 1.58 | 1.72 | 1.73 | 1.71 | 1.56 | – | – | – | – | –
5 | CCC[C@@H]1C[C@@H](C(=O)N[C@@H]([C@H]2O[C@H](SC)[C@H](O)[C@@H](O)[C@H]2O)[C@@H](C)O)N(C)C1 [Lincomycin] | – | – | – | 1.09 | 1.20 | 1.29 | 1.61 | 1.91 | 1.40 | 1.08 | 0.99 | 1.02 | 1.03 | 1.08 | – | – | –
6 | CN[C@H](CC(C)C)C(=O)N[C@H]1C(=O)N[C@@H](CC(N)=O)C(=O)N[C@H]2C(=O)N[C@H]3C(=O)N[C@H](C(=O)N[C@H](C(=O)O)c4cc(O)cc(O)c4-c4cc3ccc4O)[C@H](O)c3ccc(c(Cl)c3)Oc3cc2cc(c3O[C@@H]2O[C@H](CO)[C@@H](O)[C@H](O)[C@H]2O[C@H]2C[C@](C)(N)[C@H](O)[C@H](C)O2)Oc2ccc(cc2Cl)[C@H]1O [Vancomycin] | – | – | – | – | – | – | – | – | – | 1.03 | 1.04 | 1.07 | 1.11 | 1.12 | – | – | –
